# Measured values: patent US20230085307A1, “PYRIDAZINONE COMPOUND AND HERBICIDE” (NISSAN CHEMICAL CORPORATION, priority 2019, published 2023)
# Tests used:
# [1] = system: chickweed; assay: Test Example 5: herbicidal effect by foliage application, plastic box (Table 20, symbol P); assay type: in vivo, common chickweed (Stellaria media); conditions: foliage application, 320 g/ha, evaluated three weeks after application
# In short: (§1)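 Foliar spray test: emulsion formulation diluted in water to a set application rate, sprayed onto 14-day-old plants raised in diluvial soil at 25° C to 30° C under glass. Both herbicidal effect and crop effect rated visually three weeks later.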
# [2] = system: barnyard grass; assay: Test Example 4: herbicidal effect by soil treatment (Table 19, symbol H); assay type: in vivo, barnyard grass (Echinochloa crus-galli); conditions: amount of applied herbicide 320 g/ha
# In short: (§2)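 Herbicidal effect was rated 3 weeks after treatment, using the scoring criteria of an earlier test. The compound, formulated as an emulsion and diluted in water to a set herbicide amount, had been sprayed uniformly on soil over freshly sown seeds. Growth took place in a greenhouse at 25° C. to 30° C.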
# [3] = system: redroot pigweed; assay: Test Example 4: herbicidal effect by soil treatment (Table 19, symbol N); assay type: in vivo, redroot pigweed (Amaranthus retroflexus); conditions: amount of applied herbicide 320 g/ha
# In short: as §2
# [4] = system: false cleavers; assay: Test Example 5: herbicidal effect by foliage application, plastic box (Table 20, symbol Q); assay type: in vivo, false cleavers (Galium spurium); conditions: foliage application, 320 g/ha, evaluated three weeks after application
# In short: as §1
# [5] = system: blackgrass; assay: Test Example 4: herbicidal effect by soil treatment (Table 19, symbol J); assay type: in vivo, blackgrass (Alopecurus myosuroides); conditions: amount of applied herbicide 320 g/ha
# In short: as §2
# [6] = system: southern crabgrass; assay: Test Example 4: herbicidal effect by soil treatment (Table 19, symbol F); assay type: in vivo, southern crabgrass (Digitaria ciliaris); conditions: amount of applied herbicide 320 g/ha
# In short: as §2
# [7] = system: redroot pigweed; assay: Test Example 5: herbicidal effect by foliage application, plastic box (Table 20, symbol N); assay type: in vivo, redroot pigweed (Amaranthus retroflexus); conditions: foliage application, 320 g/ha, evaluated three weeks after application
# In short: as §1
# [8] = system: false cleavers; assay: Test Example 4: herbicidal effect by soil treatment (Table 19, symbol Q); assay type: in vivo, false cleavers (Galium spurium); conditions: amount of applied herbicide 320 g/ha
# In short: as §2
# [9] = system: Italian ryegrass; assay: Test Example 5: herbicidal effect by foliage application, plastic box (Table 20, symbol K); assay type: in vivo, Italian ryegrass (Lolium multiflorum); conditions: foliage application, 320 g/ha, evaluated three weeks after application
# In short: as §1
# [10] = system: persian speedwell; assay: Test Example 5: herbicidal effect by foliage application, plastic box (Table 20, symbol R); assay type: in vivo, Persian speedwell (Veronica persica); conditions: foliage application, 320 g/ha, evaluated three weeks after application
# In short: as §1
# [11] = system: green foxtail; assay: Test Example 4: herbicidal effect by soil treatment (Table 19, symbol G); assay type: in vivo, green foxtail (Setaria viridis); conditions: amount of applied herbicide 320 g/ha
# In short: as §2
# [12] = system: persian speedwell; assay: Test Example 4: herbicidal effect by soil treatment (Table 19, symbol R); assay type: in vivo, Persian speedwell (Veronica persica); conditions: amount of applied herbicide 320 g/ha
# In short: as §2
# [13] = system: Italian ryegrass; assay: Test Example 4: herbicidal effect by soil treatment (Table 19, symbol K); assay type: in vivo, Italian ryegrass (Lolium multiflorum); conditions: amount of applied herbicide 320 g/ha
# In short: as §2
# [14] = system: barnyard grass; assay: Test Example 3: herbicidal effect by foliage application, Wagner pot (Table 18, symbol H); assay type: in vivo, barnyard grass (Echinochloa crus-galli); conditions: amount of applied herbicide 320 g/ha
# In short: (§3)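 Plants were sown in alluvial soil held under 0.1–0.5 cm standing water and grown 14 days in a greenhouse at 25–30 °C. An emulsifiable formulation, water-diluted to the set dose, was then sprayed onto the foliage, and effects were scored three weeks later using previously defined criteria.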
# [15] = system: rice flat sedge; assay: Test Example 3: herbicidal effect by foliage application, Wagner pot (Table 18, symbol E); assay type: in vivo, rice flat sedge (Cyperus iria); conditions: amount of applied herbicide 320 g/ha
# In short: as §3
# [16] = system: velvetleaf; assay: Test Example 5: herbicidal effect by foliage application, plastic box (Table 20, symbol M); assay type: in vivo, velvetleaf (Abutilon theophrasti); conditions: foliage application, 320 g/ha, evaluated three weeks after application
# In short: as §1
# [17] = system: wild oat; assay: Test Example 5: herbicidal effect by foliage application, plastic box (Table 20, symbol I); assay type: in vivo, wild oat (Avena fatua); conditions: foliage application, 320 g/ha, evaluated three weeks after application
# In short: as §1
# [18] = system: wild oat; assay: Test Example 4: herbicidal effect by soil treatment (Table 19, symbol I); assay type: in vivo, wild oat (Avena fatua); conditions: amount of applied herbicide 320 g/ha
# In short: as §2
# [19] = system: southern crabgrass; assay: Test Example 5: herbicidal effect by foliage application, plastic box (Table 20, symbol F); assay type: in vivo, southern crabgrass (Digitaria ciliaris); conditions: foliage application, 320 g/ha, evaluated three weeks after application
# In short: as §1
# [20] = system: barnyard grass; assay: Test Example 5: herbicidal effect by foliage application, plastic box (Table 20, symbol H); assay type: in vivo, barnyard grass (Echinochloa crus-galli); conditions: foliage application, 320 g/ha, evaluated three weeks after application
# In short: as §1
# [21] = system: Japanese bulrush; assay: Test Example 1: herbicidal activity, application before weed generation under submerged conditions (Table 16, symbol B); assay type: in vivo, Japanese bulrush (Schoenoplectus juncoides); conditions: 320 g/ha applied herbicide
# In short: (§4)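 Emulsion formulation, water-diluted to set dose, was put onto the flooded surface (4 cm depth, alluvial soil) the same day weeds were sown and 2.5-leaf rice transplanted. After 3 weeks at 25-30 °C under glass, each species was rated 0 (≤5% kill) to 5 (≥90% kill).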
# [22] = system: oval-leafed pondweed; assay: Test Example 1: herbicidal activity, application before weed generation under submerged conditions (Table 16, symbol C); assay type: in vivo, oval-leafed pondweed (Monochoria vaginalis); conditions: 320 g/ha applied herbicide
# In short: as §4
# [23] = system: green foxtail; assay: Test Example 5: herbicidal effect by foliage application, plastic box (Table 20, symbol G); assay type: in vivo, green foxtail (Setaria viridis); conditions: foliage application, 320 g/ha, evaluated three weeks after application
# In short: as §1
# [24] = system: late watergrass; assay: Test Example 1: herbicidal activity, application before weed generation under submerged conditions (Table 16, symbol A); assay type: in vivo, late watergrass (Echinochloa oryzicola); conditions: 320 g/ha applied herbicide
# In short: as §4
# [25] = system: Chinese sprangletop; assay: Test Example 3: herbicidal effect by foliage application, Wagner pot (Table 18, symbol D); assay type: in vivo, chinese sprangletop (Leptochloa chinensis); conditions: amount of applied herbicide 320 g/ha
# In short: as §3
# [26] = system: windgrass; assay: Test Example 4: herbicidal effect by soil treatment (Table 19, symbol L); assay type: in vivo, windgrass (Apera spica-venti); conditions: amount of applied herbicide 320 g/ha
# In short: as §2
# [27] = system: lambsquarters; assay: Test Example 4: herbicidal effect by soil treatment (Table 19, symbol O); assay type: in vivo, lambsquarters (Chenopodium album); conditions: amount of applied herbicide 320 g/ha
# In short: as §2
# [28] = system: lambsquarters; assay: Test Example 5: herbicidal effect by foliage application, plastic box (Table 20, symbol O); assay type: in vivo, lambsquarters (Chenopodium album); conditions: foliage application, 320 g/ha, evaluated three weeks after application
# In short: as §1
# [29] = system: chickweed; assay: Test Example 4: herbicidal effect by soil treatment (Table 19, symbol P); assay type: in vivo, common chickweed (Stellaria media); conditions: amount of applied herbicide 320 g/ha
# In short: as §2
# [30] = system: windgrass; assay: Test Example 5: herbicidal effect by foliage application, plastic box (Table 20, symbol L); assay type: in vivo, windgrass (Apera spica-venti); conditions: foliage application, 320 g/ha, evaluated three weeks after application
# In short: as §1
# [31] = system: blackgrass; assay: Test Example 5: herbicidal effect by foliage application, plastic box (Table 20, symbol J); assay type: in vivo, blackgrass (Alopecurus myosuroides); conditions: foliage application, 320 g/ha, evaluated three weeks after application
# In short: as §1
# [32] = system: velvetleaf; assay: Test Example 4: herbicidal effect by soil treatment (Table 19, symbol M); assay type: in vivo, velvetleaf (Abutilon theophrasti); conditions: amount of applied herbicide 320 g/ha
# In short: as §2
smiles,measurement,setting,value
COc1ccc2sc(-c3ccccc3OC)c(-c3c(O)c(C)nn(C)c3=O)c2c1 [2-165],herbicidal effect on P: chickweed (criteria 0-5),[1],5 (Herbicidal rate of 90% or more (almost completely withered))
same,"H: barnyard grass, herbicidal effect rating",[2],3 (Herbicidal rate of 40% or more and less than 70%)
same,"N: redroot pigweed, herbicidal effect rating",[3],4 (Herbicidal rate of 70% or more and less than 90%)
same,herbicidal effect on Q: false cleavers (criteria 0-5),[4],5 (Herbicidal rate of 90% or more (almost completely withered))
same,"J: blackgrass, herbicidal effect rating",[5],4 (Herbicidal rate of 70% or more and less than 90%)
same,"F: southern crabgrass, herbicidal effect rating",[6],3 (Herbicidal rate of 40% or more and less than 70%)
same,herbicidal effect on N: redroot pigweed (criteria 0-5),[7],5 (Herbicidal rate of 90% or more (almost completely withered))
same,"Q: false cleavers, herbicidal effect rating",[8],3 (Herbicidal rate of 40% or more and less than 70%)
same,herbicidal effect on K: Italian ryegrass (criteria 0-5),[9],4 (Herbicidal rate of 70% or more and less than 90%)
same,herbicidal effect on R: persian speedwell (criteria 0-5),[10],4 (Herbicidal rate of 70% or more and less than 90%)
same,"G: green foxtail, herbicidal effect rating",[11],4 (Herbicidal rate of 70% or more and less than 90%)
same,"R: persian speedwell, herbicidal effect rating",[12],5 (Herbicidal rate of 90% or more (almost completely withered))
same,"K: Italian ryegrass, herbicidal effect rating",[13],0 (Herbicidal rate of 5% or less (almost no effect))
same,herbicidal effect on H: barnyard grass,[14],5 (Herbicidal rate of 90% or more (almost completely withered))
same,herbicidal effect on E: rice flat sedge,[15],5 (Herbicidal rate of 90% or more (almost completely withered))
same,herbicidal effect on M: velvetleaf (criteria 0-5),[16],5 (Herbicidal rate of 90% or more (almost completely withered))
same,herbicidal effect on I: wild oat (criteria 0-5),[17],5 (Herbicidal rate of 90% or more (almost completely withered))
same,"I: wild oat, herbicidal effect rating",[18],2 (Herbicidal rate of 20% or more and less than 40%)
same,herbicidal effect on F: southern crabgrass (criteria 0-5),[19],5 (Herbicidal rate of 90% or more (almost completely withered))
same,herbicidal effect on H: barnyard grass (criteria 0-5),[20],5 (Herbicidal rate of 90% or more (almost completely withered))
same,Herbicidal effect on B: Japanese bulrush (grade 0-5),[21],0 (Herbicidal rate of 5% or less (almost no effect))
same,Herbicidal effect on C: oval-leafed pondweed (grade 0-5),[22],1 (Herbicidal rate of 5% or more and less than 20%)
same,herbicidal effect on G: green foxtail (criteria 0-5),[23],5 (Herbicidal rate of 90% or more (almost completely withered))
same,Herbicidal effect on A: late watergrass (grade 0-5),[24],3 (Herbicidal rate of 40% or more and less than 70%)
same,herbicidal effect on D: Chinese sprangletop,[25],3 (Herbicidal rate of 40% or more and less than 70%)
same,"L: windgrass, herbicidal effect rating",[26],4 (Herbicidal rate of 70% or more and less than 90%)
same,"O: lambsquarters, herbicidal effect rating",[27],4 (Herbicidal rate of 70% or more and less than 90%)
same,herbicidal effect on O: lambsquarters (criteria 0-5),[28],5 (Herbicidal rate of 90% or more (almost completely withered))
same,"P: chickweed, herbicidal effect rating",[29],4 (Herbicidal rate of 70% or more and less than 90%)
same,herbicidal effect on L: windgrass (criteria 0-5),[30],5 (Herbicidal rate of 90% or more (almost completely withered))
same,herbicidal effect on J: blackgrass (criteria 0-5),[31],5 (Herbicidal rate of 90% or more (almost completely withered))
same,"M: velvetleaf, herbicidal effect rating",[32],2 (Herbicidal rate of 20% or more and less than 40%)
